{"source": "patent US20250136652A1", "about": "“FUSION PROTEIN FOR TARGETING RECOMBINANT PROTEINS FOR DEGRADATION” (The Regents of the University of California, priority 2022, published 2025)", "key": {"NALM6 target cells": {"tested_on": "NALM6 target cells", "assay": "MLN4924 dose response: ON switch CAR lysis of NALM6 target cells", "assay_type": "cell-based, human", "settings": "MLN4924 1 μM to 0.015625 μM; 72 hours at 37 C; CD8+ T cells with antiCD19BBz CAR-SynZip and memSTUD", "procedure": "We engineer CD8+ primary human T cells that express an antiCD19BBz CAR fused to a SynZip and a STUD to recognizes the SynZip. As a control, the CD8+ primary human T cells that express the same CAR without the SynZip and the SynZip STUD were also engineered. Both these cell lines were cocultured and an untransduced (UnT) control with NALM6 target cells for 72 hours at 37 C in the presence of various concentrations of MLN4924. Lysis of target cells was calculated by each line relative to NALM6 cells cultured alone by flow cytometry.\nCD8+ primary human T cells were engineered with an antiCD19BBz CAR fused to a SynZip and a memSTUD that binds the SynZip using the same plasmids outlined in FIG. 14A by lentiviral transduction. As a control, we also lentivirally transduce CD8+ primary human T cells with an antiCD19BBz and a SynZip memSTUD which cannot bind the CAR. These engineered cells and an untransduced control were cocultured with NALM6 target cells for 72 hours at 37 C in the presence of MLN4924 ranging from 1 μM to 0.015625 μM and a DMSO vehicle control. After coculture, target cell lysis was assayed by flow cytometry. Specific target cell lysis of each cell line relative to NALM6 cells cultured alone in the same conditions was then calculated.\nCo-culture assays: For all assays, T cells and target cells were co-cultured at a 1:1 ratio with cell numbers varying per assay. […]"}, "[1]": {"tested_on": "STUD degradation of GFP (ubiquitin proteasome pathway)", "assay": "Inhibitor assay: rescue of GFP fluorescence in Jurkat T cells expressing SynZip STUD and GFP target", "assay_type": "cell-based", "settings": "5 hours; for GFP fluorescence rescue relative to DMSO vehicle control: cells express functional STUD and GFP target", "procedure": "FIG. 3: STUD degradation of GFP is mediated by the cullins in UPP. Representative flow cytometry distributions of GFP fluorescence of Jurkat T cells expressing the SynZip STUD described in FIG. 2B treated with one of three drugs or a DMSO vehicle control. Distributions are representative of three independent experiments.\nUsing the 2 plasmid system as described above, we lentivirally transduce Jurkat T cells. 72 hours after removal of lentivirus, we treat these Jurkat T cells and an untransduced control cell line with either 5 μM of the proteasomal inhibitor MG-132, 1 μM of the cullin ring ligase inhibitor MLN4924, 100 nM of the lysosomal inhibitor Bafilomycin A1, or DMSO vehicle control and incubate at 37 C for 5 hours. […] FIG. 3.\nFlow cytometry: All flow cytometry data was obtained using a LSR Fortessa (BD Biosciences). All assays were run in a 96-well round bottom plate (Fisher Scientific #08-772-2C). Samples were prepared by pelleting cells in the plate using centrifugation at 400×g for 4 minutes. Supernatant was then removed and 200 μL of PBS (UCSF Cell Culture facility) was used to wash cells. The cells were again pelleted as described above and supernatant was removed. Cells were resuspended in 120 μL of Flow buffer (PBS+2% FBS) and mixed by pipetting prior to flow cytometry assay.\n(§1) Inhibitor Assays: 100,000 cells were plated in a 96 well round bottom plate with either 5 μM MG-132 (Sigma-Aldrich #M7449-200UL), 1 μM MLN4924 (Active Biochem #A-1139), 100 nM Bafilomycin A1 (Enzo Life Sciences #BML-CM110-0100), or DMSO vehicle control and incubated at 37 C for 5 hours. After incubation, cells were pelleted by centrifugation at 400×g for 4 minutes. Supernatant was then removed and cells were washed once with 200 μL PBS. Cells were pelleted again (400×g for 4 minutes) and resuspended in flow buffer (PBS+2% FBS) for assay by flow cytometry."}, "[2]": {"tested_on": "STUD knockdown of anti-CD19 4-1BB CD3zeta CAR", "assay": "MLN4924 rescue of STUD knockdown of CD19BBz CAR expression in CD8+ primary T cells", "assay_type": "cell-based, human", "settings": "1 μM MLN4924, 5 hours, 37 C", "procedure": "FIG. 4D. Plasmid in FIG. 4A is transduced into CD8+ primary T cells and anti-CD19 4-1BB CD3zeta CAR expression and activation is assayed. Left: Cullin inhibitor MLN4924 is added to engineered T cells to rescue degradation of CAR by STUD. […] Black bars represent each condition with DMSO vehicle control. Middle: Engineered T cells are cocultured with NALM6 target cells for 72 hours and lysis is measured by flow cytometry. Lysis is calculated relative to lysis of NALM6 cells cultured with UnT T cells. Right: Median fluorescence of T cell activation marker CD25 after coculture is measured by antibody stain for CD25 and flow cytometry.\nEngineered CD8+ T cells expressing were cocultured with NALM6 target cells and measured activation of the CAR by quantifying target cell lysis and expression of the T cell activation marker CD25.\nas §1, with “cytometry. […]” for “cytometry.”"}, "[3]": {"molecular_target": "GFP fused to a heterodimeric SynZip protein complementary to the binding domain on the STUD", "sequence (chain, as listed by the source)": "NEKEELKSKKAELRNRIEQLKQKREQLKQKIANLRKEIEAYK", "assay": "cell-based or functional assay"}}, "note": "Residues, ends and D or L forms follow the SMILES beside them. *: point of attachment. Cbz = O=C(OCc1ccccc1)*", "data": [{"molecule": "NS(=O)(=O)OC[C@@H]1C[C@@H](n2ccc3c(N[C@H]4CCc5ccccc54)ncnc32)C[C@@H]1O", "note": "[MLN4924]", "values": [{"measurement": "specific target cell lysis by CAR", "setting": "NALM6 target cells", "value": "dose dependent"}, {"measurement": "GFP fluorescence rescue relative to DMSO vehicle control", "setting": "[1]; 1 μM MLN4924, 37 C", "value": "can indeed be rescued"}, {"measurement": "rescue of STUD knockdown of CAR expression", "setting": "[2]", "value": "can rescue STUD knockdown of CAR expression"}]}, {"molecule": "CC(C)C[C@@H](C=O)NC(=O)[C@H](CC(C)C)NC(=O)[C@H](CC(C)C)NC(=O)OCc1ccccc1", "note": "[MG-132] (Cbz-Leu-Leu-Leu-aldehyde)", "values": [{"measurement": "GFP fluorescence rescue relative to DMSO vehicle control", "setting": "[1]; 5 μM MG-132, 37 C", "value": "can indeed be rescued"}]}, {"molecule": "CO/C1=C\\C(C)=C\\[C@@H](C)[C@@H](O)[C@@H](C)C/C(C)=C/C=C/[C@H](OC)[C@@H]([C@@H](C)[C@@H](O)[C@H](C)[C@@]2(O)C[C@@H](O)[C@H](C)[C@@H](C(C)C)O2)OC1=O", "note": "[Bafilomycin A1]", "values": [{"measurement": "GFP fluorescence change relative to DMSO vehicle control", "setting": "[1]; 100 nM Bafilomycin A1, 37 C", "value": "No changes to GFP fluorescence"}]}, {"molecule": "synZIP STUD (Synthetic Targeter of Ubiquitination and Degradation) (designed binder) SIAATLENDLARLENENARLERDIANLERDLARLEREEAYFGSGSGSGSGSRRRG", "values": [{"measurement": "fold change of median normalized GFP fluorescence (GFP/tagBFP), flow cytometry, Jurkat T cells", "setting": "[3]", "value": 42, "unit": "fold"}]}]}
